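1) Cells in 96-well plates. 2) Compound, 48 h, 5 concentrations. 3) Linear interpolation between surrounding doses. 4) Unreached endpoint = highest concentration. The concentration for 50% growth inhibition is given as GI50. TGI: concentration producing complete growth inhibition.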 Some results are limits rather than exact numbers.

Holding throughout (experiment): NCI anticancer screen, dose series, 48 h
Assay [1] deals with 786-0 renal.
Assay [2] concerns EKVX NSCLC.
Assay [3] relates to HOP-92 NSCLC.
For assay [4], the system named is IGROV1 ovarian.
Assay [5] relates to MCF7 breast.
Assay [6] has as its system NCI-H460 lung.
The test system of assay [7] is NCI-H522 lung.
Assay [8] deals with U251 CNS.
For assay [9], the system named is UACC-257 melanoma.
Assay [10] concerns UO-31 renal.

On to `O=C1/C(=C/c2ccccc2)CN(C(=O)C(Cl)Cl)C/C1=C\c1ccccc1`, for which the GI50 in assay [1] is 1.38 µM; in assay [2], 0.894 µM; in assay [3], 1.26 µM; in assay [4], 0.708 µM; in assay [5], 0.113 µM; in [6], 1.3 µM. Besides, the GI50 was 1.08 µM in [7], 0.325 µM in assay [8], 1.42 µM in assay [9] and 1.29 µM in assay [10]. Further, the TGI in [1] is 2.82 µM; in assay [2] it was 3.06 µM; in assay [3] it was 3.09 µM; in assay [4], 2.2 µM; in assay [5], 0.886 µM; in assay [6] it was 3.01 µM. Besides, the TGI worked out at 2.69 µM in assay [7], 1.24 µM in [8], 3.13 µM in assay [9] and 2.62 µM in [10].

`O=C(/C=C/c1ccc(Cl)cc1)c1ccccc(=O)c1O`: the TGI came to 32.1 µM in [1]; 18.3 µM in assay [2]; 17 µM in [3]; 15.8 µM in [4]; 19.8 µM in [5]; 3.04 µM in assay [6]. Besides, the TGI in assay [7] is 50.9 µM; in [8], more than 100 µM; in assay [9] it was 14.6 µM; in assay [10] it was more than 100 µM.

In the case of `O=c1[nH]c2ccccc2c2nc3ccccc3n12`, the TGI in assay [1], in assay [2], in assay [3], in assay [4], in assay [5] and in assay [6] was more than 100 µM each time. Also, the TGI in assay [7] was 28.2 µM; in assay [8], more than 100 µM; in assay [9], more than 100 µM; in [10], more than 100 µM.

As to `CC(=O)/C(=C/c1ccccc1)C(=O)CC(C)C`, the GI50 in assay [1] was 17.5 µM; in [2], 17.3 µM; in [3], 32.7 µM; in assay [4] it was 16.4 µM; in [5], 4.5 µM; in assay [6], 17.5 µM. Moreover, the GI50 was 9.68 µM in assay [7], 4.86 µM in assay [8], 13.9 µM in assay [9] and 10.5 µM in assay [10]. In addition, the TGI in assay [1] is 32.5 µM; in [2], 40.9 µM; in [3], more than 100 µM; in [4], 33.6 µM; in assay [5], 18.5 µM; in assay [6], 38.5 µM. In addition, the TGI in assay [7] came out at 22 µM; in [8], 17.7 µM; in assay [9] it was 28.9 µM; in assay [10], 22.6 µM.

As for `CCCCOC(=O)c1ccc(N)cc1`, the GI50 was 32.4 µM in assay [1]; 39.7 µM in assay [2]; 95.1 µM in assay [3]; more than 100 µM in assay [4]; 74.6 µM in [5]; 34.3 µM in assay [6]. For the same molecule, the GI50 was 54.1 µM in [7], more than 100 µM in assay [8], 52.2 µM in assay [9] and 8.74 µM in assay [10]. The TGI in assay [1], in assay [2], in assay [3], in assay [4], in assay [5] and in [6] was more than 100 µM in each case. The TGI in assay [7], in assay [8], in [9] and in [10] was more than 100 µM each time.

With `O=C(O)[C@H](Cc1c[nH]c2ccccc12)N1C(=O)c2ccccc2C1=O`, the TGI in assay [1], in [2], in assay [3], in [4], in assay [5] and in [6] was more than 100 µM in each case. Further, the TGI in [7], in assay [8], in [9] and in assay [10] was more than 100 µM in each case. In addition, the GI50 is 72.3 µM in assay [3] and more than 100 µM in [4].

`Cc1c(O)c(N=Nc2nc3ccccc3s2)c2ccccc2c1O`: the GI50 in assay [1] is more than 50 µM; in [2] it was 13.3 µM; in [3], 33.9 µM; in assay [4], 17.6 µM; in assay [5], more than 50 µM; in [6] it was 28 µM. For the same molecule, the GI50 in assay [7] was 19.1 µM; in assay [8], 25.5 µM; in [9] it was 14.7 µM; in assay [10] it was 18.8 µM. In addition, the TGI in assay [1], in [2], in [3], in assay [4], in [5] and in [6] was more than 50 µM each time. For the same molecule, the TGI in assay [7] is 46.6 µM; in assay [8], more than 50 µM; in assay [9] it was 36.1 µM; in assay [10] it was more than 50 µM.

`CC(C)N1CCN(c2ccncc2S(=O)(=O)N2CCCCC2)CC1`: the TGI in [1], in [2], in assay [3], in assay [4], in assay [5] and in assay [6] was more than 100 µM throughout. Besides, the TGI in assay [7], in assay [8], in assay [9] and in assay [10] was more than 100 µM in each case.
